# Measured values published in the NIST ThermoML archive (doi:10.1016/j.jct.2012.12.010).
# ± gives the expanded uncertainty stated by the source.
# Key:
# [1] = 101 kPa, Liquid; for speed of sound: Linear variable-path acoustic interferometer; for mass density: Pycnometric method
# [2] = mn = molality of the nth substance listed, in mol/kg; conditions: 101 kPa, Liquid, m2 = 0; for speed of sound: Linear variable-path acoustic interferometer; for mass density: Pycnometric method
speed of sound ([1]; 275.15 K),mass density ([1]; 275.15 K),speed of sound ([1]; 279.15 K),mass density ([1]; 279.15 K),speed of sound ([1]; 283.15 K),mass density ([1]; 283.15 K),speed of sound ([2]; 275.15 K),mass density ([2]; 275.15 K),speed of sound ([2]; 279.15 K),mass density ([2]; 279.15 K),speed of sound ([2]; 283.15 K),mass density ([2]; 283.15 K),Compound
1412.2 ± 2.8 m/s,999.94 ± 0.47 kg/m3,1430.6 ± 2.8 m/s,999.94 ± 0.47 kg/m3,1447.3 ± 2.8 m/s,999.7 ± 0.46 kg/m3,–,–,–,–,–,–,O [water]
–,–,–,–,–,–,1412.2 ± 2.8 m/s,999.94 ± 0.47 kg/m3,1430.6 ± 2.8 m/s,999.94 ± 0.47 kg/m3,1447.3 ± 2.8 m/s,999.7 ± 0.46 kg/m3,O [water] + N=C(N)NCCC[C@H](N)C(=O)O
–,–,–,–,–,–,1412.2 ± 2.8 m/s,999.94 ± 0.47 kg/m3,1430.6 ± 2.8 m/s,999.94 ± 0.47 kg/m3,1447.3 ± 2.8 m/s,999.7 ± 0.46 kg/m3,O [water] + CC(C)[C@H](N)C(=O)O
–,–,–,–,–,–,1412.2 ± 2.8 m/s,999.94 ± 0.47 kg/m3,1430.6 ± 2.8 m/s,999.94 ± 0.47 kg/m3,1447.3 ± 2.8 m/s,999.7 ± 0.46 kg/m3,O [water] + C[C@@H](O)[C@H](N)C(=O)O
